Where “and” joins values, the source holds several entries; their conditions need not be identical. Equal entries are not always repeated.

Common to all, as to type: in vivo
Holding throughout (conditions): no safener

The test system of assay [1] is Wheat (Triso). As to the kind of experiment: Pre-emergence herbicidal effect and safener effect on wheat, visual scoring in greenhouse. From the text: (§1) Seeds or rhizome pieces of mono- and dicotyledonous weed plants and crop plants are planted in peat pots in sandy loam and covered with earth. The herbicide/safener active ingredient combinations according to the invention, formulated as water-soluble powders or suspensions, and, in parallel experiments, the correspondingly formulated individual active ingredients were then applied to the surface of the covering earth at an application rate of 600 to 800 I of water/ha (converted) in a variety of dosages.
(§2) After the treatment, the pots were placed in the greenhouse and kept under good growth conditions for the weeds and the crop plants. Visual scoring of the plant damage or emergence damage was carried out after the test plants had emerged after a test period of 2 to 4 weeks, in comparison with untreated controls.

The test system of assay [2] is Wheat (Triso). Nature of the assay: Post-emergence herbicidal effect and safener effect on wheat, visual scoring in greenhouse. The procedure: (§3) Seeds or rhizome pieces of mono- and dicotyledonous harmful plants and of crop plants are planted in peat pots in sandy loam, covered with earth and grown in a greenhouse under good growth conditions. Alternatively to this, harmful plants occurring in the paddy rice cultivation are cultivated in pots in which water comes to 2 cm above the soil surface. 10 to 20 days after sowing, the test plants are treated in the one-to three-leaf stage. The herbicide/safener active ingredient combinations according to the invention, formulated as water-soluble powders or suspensions, and, in parallel experiments, the correspondingly formulated individual active ingredients are sprayed onto the green plant parts in various dosages using an application rate of 300 I of water/ha (converted) and, after the test plants have remained in the greenhouse under optimum growth conditions for 2-3 weeks, the effect of the preparations is scored visually in comparison with untreated controls. In the case of rice or in the case of harmful plants which occur in the rice cultivation, the active ingredients are also placed directly into the irrigation water (application analogous to the so-called granules application) or sprayed onto plants and into the irrigation water.

The subject of assay [3] is Corn (Aventura). Nature of the assay: Pre-emergence herbicidal effect and safener effect on corn, visual scoring in greenhouse.
Text: as §1, §2

The test system of another assay is Rice (Ballila). Nature of the assay: Post-emergence herbicidal effect and safener effect on rice, visual scoring in greenhouse. The procedure: as §3
For assay [4], the system named is Corn (Aventura). Nature of the assay: Post-emergence herbicidal effect and safener effect on corn, visual scoring in greenhouse. As to the method: as §3

With `Nc1nc(C2CC2)nc(C(=O)O)c1Cl` [Compound I-1, 6-amino-5-chloro-2-cyclopropyl-4-pyrimidinecarboxylic acid], the “% effect (without safener)” value in the assay with Wheat (Triso) [1] (herbicide 25 g a.i./ha) was found to be 30%; with Wheat (Triso) [2] (herbicide 50 g a.i./ha), 20%; in the assay with Corn (Aventura) [3] (herbicide 100 g a.i./ha) it was 50%.
With `CCOC(=O)c1nc(C2CC2)nc(N)c1Cl` [Compound I-3, ethyl 6-amino-5-chloro-2-cyclopropyl-4-pyrimidinecarboxylate], the “% effect (without safener)” value in the assay with Rice (Ballila) (herbicide 25 g a.i./ha) is 60%; in the assay with Corn (Aventura) [4] (herbicide 50 g a.i./ha), 60%; in the assay on Corn (Aventura) [3] (herbicide 50 g a.i./ha), 20% and 25%.
For `Nc1nc(-c2ccc(Cl)cc2)nc(C(=O)O)c1Cl` [Compound I-109, 6-amino-5-chloro-2-(4-chlorophenyl)-4-pyrimidinecarboxylic acid], the “% effect (without safener)” value stood at 20% in the assay on Wheat (Triso) [1] (herbicide 25 g a.i./ha), 60% in the assay on Corn (Aventura) [4] (herbicide 25 g a.i./ha), 30% with Wheat (Triso) [2] (herbicide 25 g a.i./ha) and 20% with Corn (Aventura) [3] (herbicide 25 g a.i./ha).
In the case of `Nc1nc(C2CC2)nc(C(=O)[O-])c1Cl.[K+]` [Compound I-163, potassium salt of 6-amino-5-chloro-2-cyclopropyl-4-pyrimidinecarboxylic acid], the “% effect (without safener)” value in the assay on Wheat (Triso) [1] (herbicide 50 g a.i./ha) worked out at 20%; in the assay with Corn (Aventura) [4] (herbicide 25 g a.i./ha), 20%; in the assay on Wheat (Triso) [2] (herbicide 25 g a.i./ha), 10%; with Corn (Aventura) [3] (herbicide 50 g a.i./ha), 50%.
For `Nc1nc(C2CC2)nc(C(=O)[O-])c1Cl.[Na+]` [Compound I-164, 6-amino-5-chloro-2-cyclopropyl-4-pyrimidinecarboxylic acid sodium salt], the “% effect (without safener)” value in the assay with Wheat (Triso) [1] (herbicide 25 g a.i./ha) was 10%; in the assay on Rice (Ballila) (herbicide 25 g a.i./ha, sodium salt), 10% and 20%; with Rice (Ballila) (herbicide 50 g a.i./ha), 20%; in the assay on Wheat (Triso) [2] (herbicide 25 g a.i./ha) it was 20%.
